From US20100285963A1, “SUBSTITUTED FLUOROALKOXYPHENYLSULFONYLUREAS” (priority 2001, published 2010) come the findings set out here.

Molecules are shown by their SMILES.

The test system of assay [1] is weeds. Put plainly: Post-emergence test (greenhouse), damage to weeds. The conditions noted are these: for activity against weeds: test plants of 5-15 cm sprayed, rated after three weeks as % damage vs untreated control. Format: in vivo. The method, then: (§1) Solvent: 5 parts by weight of acetone
(§2) Emulsifier: 1 part by weight of alkylaryl polyglycol ether
To product a suitable preparation of active compound, 1 part by weight of active compound is mixed with the stated amount of solvent, the stated amount of emulsifier is added and the concentrate is diluted with water to the desired concentration.
Test plants of a height of 5-15 cm are sprayed with the preparation of active compound such that the particular amounts of active compound desired are applied per unit area. The concentration of the spray liquor is chosen such that the particular amounts of active compound desired are applied in 10001 of water/ha.
After three weeks, the degree of damage to the plants is rated in % damage in comparison to the development of the untreated control.
The figures denote: • 0%=no effect (like untreated control) • 100%=total destruction

Assay [2] deals with weeds. As to the kind of experiment: Pre-emergence test (greenhouse), damage to weeds. Format: in vivo. The conditions noted are these: for activity against weeds: soil sprayed 24 hours after sowing, rated after three weeks as % damage vs untreated control. Here is the method:
as §1, §2
To produce a suitable preparation of active compound, 1 part by weight of active compound is mixed with the stated amount of solvent, the stated amount of emulsifier is added and the concentrate is diluted with water to the desired concentration.
Seeds of the test plants are sown in normal soil. After 24 hours, the soil is sprayed with the preparation of active compounds such that the particular amount of active compound desired is applied per unit area. The concentration of active compound in the spray liquor is chosen such that the particular amount of active compound desired is applied in 1000 liters of water per hectare.
After three weeks, the degree of damage to the plants is rated in % damage in comparison to the development of the untreated control. The figures denote: • 0%=no effect (like untreated control) • 100%=total destruction

The mark [3] stands for this setting: 250 g of a.i./ha, after three weeks.
[4] abbreviates: 30 g of a.i./ha, after three weeks, Table B10.
The mark [5] stands for this setting: 60 g of a.i./ha, after three weeks, Table A6.
The mark [6] stands for this setting: 30 g of a.i./ha, after three weeks, Table B12.
The mark [7] stands for this setting: 60 g of a.i./ha, after three weeks, Table A7.
[8] abbreviates: 60 g of a.i./ha, after three weeks.
The mark [9] stands for this setting: 30 g of a.i./ha, after three weeks, Table B13.
Where [10] appears, read: 15 g of a.i./ha, after three weeks, Table A3.
Setting [11] is: 30 g of a.i./ha, after three weeks, Table B8.
Where [12] appears, read: 8 g of a.i./ha, after three weeks.
Where [13] appears, read: 30 g of a.i./ha, after three weeks, Table B11.

With `CCc1cccc(OCCCF)c1S(=O)(=O)NC(=O)Nc1nc(Cl)cc(OC)n1` [Example 18], the activity against weeds entry in assay [1] is given as “very strong activity”.

Take `COc1nc(NC(=O)NS(=O)(=O)c2c(C)cccc2OCCCF)nc(OC)n1` [Example 15]: the activity against weeds result in assay [1] and in assay [2] was “very strong activity” each time.

Take `CCCc1cccc(OCCF)c1S(=O)(=O)NC(=O)Nc1nc(OC)cc(OC)n1` [(26)]: in assay [1] (setting [3]), the “% damage Abutilon” value is recorded as 100%, the “% damage Alopecurus” value worked out at 95%, the “% damage Amaranthus” value was determined as 100% and the “% damage Avena fatua” value is 90%. Besides, in assay [1] (setting [3]), the “% damage Galium” value was 90%, the “% damage Setaria” value is on record as 90% and the “% damage Sinapis” value came to 95%. Also, in assay [2] (setting [3]), the “% damage Alopecurus” value was 100%, the “% damage Amaranthus” value worked out at 100%, the “% damage Avena fatua” value is 90% and the “% damage Galium” value was 95%. For the same molecule, in assay [2] (setting [3]), the “% damage Setaria” value was 100% and the “% damage Xanthium” value is listed as 95%.

`COc1nc(NC(=O)NS(=O)(=O)c2c(C)cccc2OCCCF)nc(OC)n1` [(15)]: in assay [1] (setting [4]), the “% damage Abutilon” value worked out at 95%, the “% damage Alopecurus” value is recorded as 90%, the “% damage Amaranthus” value came out at 100% and the “% damage Ipomoea” value is on record as 100%. For the same molecule, in assay [1] (setting [4]), the “% damage Lolium” value is given as 90%, the “% damage Matricaria” value was 100% and the “% damage Stellaria” value is 100%. In assay [2] (setting [5]), the “% damage Abutilon” value came to 95%, the “% damage Alopecurus” value turned out to be 95%, the “% damage Amaranthus” value is given as 100% and the “% damage Echinochloa” value turned out to be 95%. Besides, in assay [2] (setting [5]), the “% damage Galium” value came out at 95% and the “% damage Sinapis” value is given as 95%.

Take `COc1cc(Cl)nc(NC(=O)NS(=O)(=O)c2c(OCCF)cccc2C(F)(F)F)n1` [(20)]: in assay [1] (setting [6]), the “% damage Echinochloa” value was determined as 90%, the “% damage Ipomoea” value was 100%, the “% damage Matricaria” value is 95% and the “% damage Polygonum” value turned out to be 95%. For the same molecule, in assay [1] (setting [6]), the “% damage Xanthium” value was found to be 100%. For the same molecule, in assay [2] (setting [7]), the “% damage Abutilon” value is 90%, the “% damage Alopecurus” value stood at 90%, the “% damage Amaranthus” value stood at 95% and the “% damage Galium” value turned out to be 95%. Also, in assay [2] (setting [7]), the “% damage Setaria” value was found to be 100% and the “% damage Sinapis” value is 95%.

Turning to `COc1cc(Cl)nc(NC(=O)NS(=O)(=O)c2c(C)cccc2OCCCF)n1` [Example 14], the activity against weeds entry in assay [1] and in assay [2] was “very strong activity” each time.

As to `CN(C)c1nc(NC(=O)NS(=O)(=O)c2c(OCCF)cccc2C(F)(F)F)nc(OCC(F)(F)F)n1` [(22)], in assay [1] (setting [8]), the “% damage Alopecurus” value amounted to 90%, the “% damage Amaranthus” value turned out to be 100%, the “% damage Galium” value is given as 95% and the “% damage Ipomoea” value amounted to 100%. Besides, in assay [1] (setting [8]), the “% damage Setaria” value came out at 95% and the “% damage Sinapis” value amounted to 95%.

Consider `COc1nc(NC(=O)NS(=O)(=O)c2c(OCCF)cccc2C(F)(F)F)nc(OC)n1` [(21)], for which, in assay [1] (setting [9]), the “% damage Avena fatua” value amounted to 100%, the “% damage Datura” value turned out to be 100%, the “% damage Lolium” value is recorded as 100% and the “% damage Matricaria” value worked out at 100%. Further, the “% damage Solanum” value in assay [1] (setting [9]) stood at 100%. In assay [2] (setting [7]), the “% damage Abutilon” value came out at 90%, the “% damage Alopecurus” value amounted to 90%, the “% damage Amaranthus” value is listed as 95% and the “% damage Galium” value is on record as 95%. In assay [2] (setting [7]), the “% damage Setaria” value came to 100% and the “% damage Sinapis” value amounted to 100%.

As to `COc1cc(OC)nc(NC(=O)NS(=O)(=O)c2c(OCCF)cccc2C(F)(F)F)n1` [Example 4], the activity against weeds result in assay [1] and in assay [2] was “very strong activity” each time.

For `COc1nc(C)nc(NC(=O)NS(=O)(=O)c2c(OCCF)cccc2C(F)(F)F)n1` [Example 3], the activity against weeds result in assay [1] and in assay [2] was “very strong activity” each time.

On to `COc1nc(C)nc(NC(=O)[N-]S(=O)(=O)c2c(OCCF)cccc2C(F)(F)F)n1.[Na+]` [(5)], for which, in assay [1] (setting [4]), the “% damage Abutilon” value was determined as 100%, the “% damage Alopecurus” value came out at 95%, the “% damage Amaranthus” value came to 100% and the “% damage Ipomoea” value is reported as 100%. In assay [1] (setting [4]), the “% damage Lolium” value is 95%, the “% damage Matricaria” value is on record as 100% and the “% damage Stellaria” value stood at 100%. For the same molecule, in assay [2] (setting [10]), the “% damage Amaranthus” value is listed as 100%, the “% damage Datura” value came to 100%, the “% damage Echinochloa” value is reported as 100% and the “% damage Galium” value stood at 100%. Also, in assay [2] (setting [10]), the “% damage Matricaria” value was 100% and the “% damage Viola” value is on record as 100%.

With `COc1nc(NC(=O)NS(=O)(=O)c2c(OCCF)cccc2C(F)(F)F)nc(OC)n1` [Example 21], the activity against weeds result in assay [1] and in assay [2] was “very strong activity” in each case.

Turning to `COc1nc(C)nc(NC(=O)NS(=O)(=O)c2c(OCCF)cccc2C(F)(F)F)n1` [(3)], in assay [1] (setting [11]), the “% damage Abutilon” value is 100%, the “% damage Alopecurus” value came to 95%, the “% damage Amaranthus” value was 100% and the “% damage Lolium” value is recorded as 95%. Moreover, in assay [1] (setting [11]), the “% damage Matricaria” value came to 100%, the “% damage Viola” value was determined as 100% and the “% damage Xanthium” value is 100%. Also, in assay [2] (setting [12]), the “% damage Abutilon” value worked out at 100%, the “% damage Cyperus” value is recorded as 100%, the “% damage Echinochloa” value was 100% and the “% damage Galium” value is listed as 100%. Further, in assay [2] (setting [12]), the “% damage Solanum” value worked out at 100%, the “% damage Stellaria” value is recorded as 100% and the “% damage Veronica” value is 100%.

On to `COc1nc(C)nc(NC(=O)NS(=O)(=O)c2c(C)cccc2OCCCF)n1` [(13)], for which, in assay [1] (setting [4]), the “% damage Abutilon” value stood at 100%, the “% damage Alopecurus” value came out at 90%, the “% damage Amaranthus” value was determined as 100% and the “% damage Ipomoea” value was determined as 90%. In addition, in assay [1] (setting [4]), the “% damage Lolium” value is given as 90%, the “% damage Matricaria” value is recorded as 100% and the “% damage Stellaria” value came out at 100%.

`COc1cc(OC)nc(NC(=O)NS(=O)(=O)c2c(C)cccc2OCCCF)n1` [Example 12]: in assay [1], the activity against weeds entry was “very strong activity”.

Regarding `CCc1cccc(OCCCF)c1S(=O)(=O)NC(=O)Nc1nc(C)cc(C)n1` [Example 6], the activity against weeds result in assay [1] and in assay [2] was “very strong activity” throughout.

As to `COc1cc(OC)nc(NC(=O)NS(=O)(=O)c2c(C)cccc2OCCCF)n1` [(12)], in assay [1] (setting [13]), the “% damage Abutilon” value stood at 95%, the “% damage Amaranthus” value is recorded as 95%, the “% damage Datura” value came out at 95% and the “% damage Echinochloa” value stood at 90%.

With `COc1nc(C)nc(NC(=O)NS(=O)(=O)c2c(C)cccc2OCCF)n1` [(2)], in assay [1] (setting [3]), the “% damage Abutilon” value stood at 100%, the “% damage Alopecurus” value is on record as 100%, the “% damage Amaranthus” value is 100% and the “% damage Avena fatua” value turned out to be 100%. In assay [1] (setting [3]), the “% damage Galium” value stood at 100%, the “% damage Setaria” value amounted to 100% and the “% damage Sinapis” value is reported as 100%. Besides, in assay [2] (setting [3]), the “% damage Alopecurus” value is reported as 100%, the “% damage Amaranthus” value turned out to be 100%, the “% damage Avena fatua” value was determined as 95% and the “% damage Galium” value was 100%. In addition, in assay [2] (setting [3]), the “% damage Setaria” value is 100% and the “% damage Xanthium” value is given as 95%.

For the molecule `COc1nc(C)nc(NC(=O)NS(=O)(=O)c2c(C)cccc2OCCCF)n1` [Example 13], in assay [1], the activity against weeds entry is “very strong activity”.

`CCCc1cccc(OCCCF)c1S(=O)(=O)NC(=O)Nc1nc(C)nc(OC)n1` [Example 7]: the activity against weeds entry in assay [1] and in assay [2] was “very strong activity” in each case.

Turning to `CN(C)c1nc(NC(=O)NS(=O)(=O)c2c(OCCF)cccc2C(F)(F)F)nc(OCC(F)(F)F)n1` [Example 22], the activity against weeds result in assay [1] is on record as “very strong activity”.

Turning to `COc1nc(C)nc(NC(=O)NS(=O)(=O)c2c(C)cccc2OCCF)n1` [(1)], in assay [1] (setting [3]), the “% damage Abutilon” value is given as 100%, the “% damage Alopecurus” value is 95%, the “% damage Amaranthus” value was 100% and the “% damage Avena fatua” value is recorded as 95%. In addition, in assay [1] (setting [3]), the “% damage Galium” value worked out at 100%, the “% damage Setaria” value worked out at 100% and the “% damage Sinapis” value turned out to be 100%. In assay [2] (setting [3]), the “% damage Alopecurus” value is on record as 100%, the “% damage Amaranthus” value stood at 100%, the “% damage Avena fatua” value came to 100% and the “% damage Galium” value is on record as 100%. Further, in assay [2] (setting [3]), the “% damage Setaria” value was found to be 100% and the “% damage Xanthium” value is 100%.
